PubChem BioAssay AID2060354 (Molecular Pharmacology Branch, DTP, NCI, 2025)
Values joined by “and” are separate entries in the source; they are usually repeats but may differ in a detail not shown here. Equal values may be shown once.

Test system: 519858-162-T-J1-PDC spheroid growth inhibition
Test: Anticancer human tumor 519858-162-T-J1-PDC patient-derived colon adenocarcinoma cell line growth inhibition [TAK]
Settings: spheroids with HUVEC and MSC; for viability, T/C: stronger effect = lower value
From the text: Combinatorial screen of targeted agents with TAK-243 and ipatasertib in multi-cell type tumor spheroids
A high-throughput screen of multi-cell type tumor spheroids was designed to identify active combinations of targeted small molecules and TAK-243 or ipatasertib. Complex spheroids include a stromal component modeled by human endothelial cells (HUVEC) and fibroblasts modeled by human mesenchymal stem cells (MSCs). The concentration ranges selected for each drug and investigational agent were based upon clinically achievable concentrations if the clinical Cmax of the agent was known.
Compounds. The drugs and investigational agents: TAK-243 (785004), ipatasertib (767898), everolimus (733504), selumetinib (741078), bortezomib (756655), trametinib (758246), ixazomib (758254), vemurafenib (761431), dabrafenib (764134), sapanisertib (764658), alpelisib (765974), and copanlisib (816437), were obtained from the National Cancer Institute (NCI) Developmental Therapeutics Program Chemical Repository. The FDA-approved anticancer drug set is available from the NCI Developmental Therapeutics Program. […] The stock solutions were prepared in dimethyl sulfoxide (DMSO, Sigma-Aldrich, St. Louis, MO, cat. D2650) at 800-fold the tested concentration and stored at -70 degrees C prior to their use. All drugs and investigational agents were tested over a range starting from a high concentration at or near the clinical Cmax and decreasing in half-log increments. If the clinical Cmax for an agent had not been determined, the highest concentration tested was 10 microM.
NCI60 Cell Culture. NCI60 cell lines were obtained from the NCI Developmental Therapeutics Program Tumor Repository. For each lot of cells, the Repository performed Applied Biosystems AmpFLSTR Identifiler testing with PCR amplification to confirm consistency with the published Identifier STR profile for each cell line. Cells were kept in continuous culture for no more than 20 passages. The optimal seeding densities for each of the cell lines at each time point assessed were determined prior to performing the concentration response studies. Briefly, the NCI60 human tumor lines were grown as monolayers in RPMI 1640 medium supplemented with 10% FBS and 2 mmol/L L-glutamine.
An additional 2 lines were from the NCI60 cell line panel including melanomas, MALME-3M and SK-MEL-2. Pooled donor human umbilical vein endothelial cells (HUVEC, Lonza, cat. CC-2519) and human mesenchymal stem cells (hMSC, Lonza, cat. PT-2501) were purchased from Lonza (Walkersville, MD).
PDMR cell lines were grown in complete medium (DC medium): Dulbecco's modified Eagle's medium (DMEM)/F12 supplemented with 5% fetal bovine serum (FBS), 2 mM L-glutamine, 100 U/mL penicillin and 100 µg/ml streptomycin, 0.4 µg/ml hydrocortisone, 10 ng/ml epidermal growth factor (EGF) recombinant human protein, 24 µg/mL adenine, and 0.1 mg/mL primocin. During culture from frozen stock vials, PDMR cells were cultured in the same medium containing 10 µM Y-27632 (see Table 3). The PDCs were cultured in complete DMEM/F12 media without 10 microM Y-27632 dihydrochloride for at least two passages prior to the screen. The pooled donor HUVEC and hMSC were cultured in endothelial cell growth medium 2 (PromoCell, Heidelberg, Germany, cat. C-22011) and mesenchymal stem cell growth medium 2 (PromoCell, cat. C-28009), respectively. For all experiments, HUVEC and hMSC were used at passages </=5.
For the pre-screen, cell seeding densities were determined from a titration spanning the range from 5,000 to 313 cells per well. The mct-spheroids including 60% malignant cells, 25% HUVEC and 15% MSC dispensed as a mixture into U-bottom Ultra-Low Attachment 384-well plates (Corning, NY)
High-throughput Drug Combination Screening.
Prior to their inoculation into 384-well plates, malignant cells, HUVEC, and hMSC were removed from T flasks using TrypLE express (Thermo Fisher Scientific, cat. 12605036) and harvested by centrifugation for 5 min at 233 x g. […]

[1] = curve of first compound, second compound 0.3 µM
[2] = curve of first compound, second compound 0.949 µM
[3] = curve of first compound, second compound 3 µM
[4] = curve of first compound, second compound 9.49 µM
[5] = curve of first compound, second compound 30 µM
[6] = second compound 0.3 µM, first compound 0.0316 µM
[7] = second compound 0.3 µM, first compound 0.1 µM
[8] = second compound 0.949 µM, first compound 0.0316 µM
[9] = second compound 0.949 µM, first compound 0.1 µM
[10] = second compound 3 µM, first compound 0.0316 µM
[11] = second compound 3 µM, first compound 0.1 µM
[12] = second compound 9.49 µM, first compound 0.0316 µM
[13] = second compound 9.49 µM, first compound 0.1 µM
[14] = second compound 30 µM, first compound 0.0316 µM
[15] = second compound 30 µM, first compound 0.1 µM
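Further: spheroids exposed to drugs for 7 days.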

Q: With `CC(C)CC(NC(=O)C(Cc1ccccc1)NC(=O)c1cnccn1)B(O)O` (centres undefined) as the molecule, how does the viability, T/C (compound 31.6 pM) read?
A: The viability, T/C was 90.9% and 107%.

Q: And the viability, T/C (compound 0.0001 µM)?
A: Its viability, T/C is 97.5% and 90.8%.

Q: And the viability, T/C (compound 0.000316 µM)?
A: The viability, T/C was 91% and 116%.

Q: And the viability, T/C (compound 0.001 µM)?
A: Its viability, T/C is 88.1% and 106%.

Q: What about the viability, T/C (compound 0.00316 µM) of the same molecule?
A: Its viability, T/C is 89.5% and 109%.

Q: And the viability, T/C (compound 0.01 µM)?
A: Its viability, T/C is 73.2% and 71.1%.

Q: What about the IC50 (curve of compound) of the same molecule?
A: Its IC50 is over 0.01 µM.

Q: `CC(C)(C)c1nc(-c2cccc(NS(=O)(=O)c3c(F)cccc3F)c2F)c(-c2ccnc(N)n2)s1` was tested. Which viability, T/C (compound 0.0316 µM) did it give?
A: The viability, T/C was 116% and 110%.

Q: And the viability, T/C (compound 0.1 µM)?
A: The viability, T/C was 134% and 144%.

Q: And the viability, T/C (compound 0.316 µM)?
A: Its viability, T/C is 131% and 137%.

Q: What about the viability, T/C (compound 1 µM) of the same molecule?
A: The viability, T/C was 132% and 150%.

Q: What about the viability, T/C (compound 3.16 µM) of the same molecule?
A: Its viability, T/C is 99% and 94.1%.

Q: And the viability, T/C (compound 10 µM)?
A: The viability, T/C was 53.2% and 71.4%.

Q: What about the IC50 (curve of compound) of the same molecule?
A: The IC50 was over 10 µM.

Q: `CC(C)(C)c1nc(-c2cccc(NS(=O)(=O)c3c(F)cccc3F)c2F)c(-c2ccnc(N)n2)s1` + CC(C)NCC(C(=O)N1CCN(c2ncnc3c2C(C)CC3O)CC1)c1ccc(Cl)cc1 was tested. Which IC50 [1] did it give?
A: Its IC50 is over 10 µM.

Q: And the IC50 [2]?
A: The IC50 was over 10 µM.

Q: What about the IC50 [3] of the same molecule?
A: Its IC50 is over 10 µM.

Q: And the IC50 [4]?
A: The IC50 was over 10 µM.

Q: What about the IC50 [5] of the same molecule?
A: The IC50 was over 10 µM.

Q: What about the viability, T/C [6] of the same molecule?
A: Its viability, T/C is 112%.

Q: What about the viability, T/C [7] of the same molecule?
A: Its viability, T/C is 128%.

Q: And the viability, T/C (second compound 0.3 µM, first compound 0.316 µM)?
A: The viability, T/C was 115%.

Q: What about the viability, T/C (second compound 0.3 µM, first compound 1 µM) of the same molecule?
A: The viability, T/C was 130%.

Q: And the viability, T/C (second compound 0.3 µM, first compound 3.16 µM)?
A: Its viability, T/C is 107%.

Q: And the viability, T/C (second compound 0.3 µM, first compound 10 µM)?
A: Its viability, T/C is 77.9%.

Q: And the viability, T/C [8]?
A: Its viability, T/C is 109%.

Q: What about the viability, T/C [9] of the same molecule?
A: The viability, T/C was 115%.

Q: And the viability, T/C (second compound 0.949 µM, first compound 0.316 µM)?
A: Its viability, T/C is 130%.

Q: What about the viability, T/C (second compound 0.949 µM, first compound 1 µM) of the same molecule?
A: Its viability, T/C is 113%.

Q: What about the viability, T/C (second compound 0.949 µM, first compound 3.16 µM) of the same molecule?
A: Its viability, T/C is 100%.

Q: What about the viability, T/C (second compound 0.949 µM, first compound 10 µM) of the same molecule?
A: Its viability, T/C is 86.7%.

Q: And the viability, T/C [10]?
A: Its viability, T/C is 102%.

Q: What about the viability, T/C [11] of the same molecule?
A: The viability, T/C was 102%.

Q: What about the viability, T/C (second compound 3 µM, first compound 0.316 µM) of the same molecule?
A: The viability, T/C was 116%.

Q: And the viability, T/C (second compound 3 µM, first compound 1 µM)?
A: The viability, T/C was 97.3%.

Q: What about the viability, T/C (second compound 3 µM, first compound 3.16 µM) of the same molecule?
A: Its viability, T/C is 106%.

Q: What about the viability, T/C (second compound 3 µM, first compound 10 µM) of the same molecule?
A: The viability, T/C was 61.2%.

Q: And the viability, T/C [12]?
A: Its viability, T/C is 104%.

Q: What about the viability, T/C [13] of the same molecule?
A: The viability, T/C was 92.6%.

Q: What about the viability, T/C (second compound 9.49 µM, first compound 0.316 µM) of the same molecule?
A: The viability, T/C was 112%.

Q: What about the viability, T/C (second compound 9.49 µM, first compound 1 µM) of the same molecule?
A: The viability, T/C was 91.6%.

Q: What about the viability, T/C (second compound 9.49 µM, first compound 3.16 µM) of the same molecule?
A: The viability, T/C was 84.4%.

Q: And the viability, T/C (second compound 9.49 µM, first compound 10 µM)?
A: Its viability, T/C is 72.6%.

Q: And the viability, T/C [14]?
A: Its viability, T/C is 105%.

Q: What about the viability, T/C [15] of the same molecule?
A: The viability, T/C was 86.9%.

Q: And the viability, T/C (second compound 30 µM, first compound 0.316 µM)?
A: The viability, T/C was 98.1%.

Q: And the viability, T/C (second compound 30 µM, first compound 1 µM)?
A: Its viability, T/C is 82.2%.

Q: What about the viability, T/C (second compound 30 µM, first compound 3.16 µM) of the same molecule?
A: Its viability, T/C is 83.2%.

Q: What about the viability, T/C (second compound 30 µM, first compound 10 µM) of the same molecule?
A: Its viability, T/C is 75.4%.

Q: What does the source list for `CC(C)n1nc(-c2ccc3oc(N)nc3c2)c2c(N)ncnc21` + CC(C)NCC(C(=O)N1CCN(c2ncnc3c2C(C)CC3O)CC1)c1ccc(Cl)cc1?
A: IC50 [1]: > 0.1 µM; IC50 [2]: > 0.1 µM; IC50 [3]: > 0.1 µM; IC50 [4]: > 0.1 µM; IC50 [5]: > 0.1 µM; viability, T/C (second compound 0.3 µM, first compound 0.000316 µM): 110%; viability, T/C (second compound 0.3 µM, first compound 0.001 µM): 78.7%; viability, T/C (second compound 0.3 µM, first compound 0.00316 µM): 89.7%; viability, T/C (second compound 0.3 µM, first compound 0.01 µM): 89.7%; viability, T/C [6]: 93.8%; viability, T/C [7]: 68.1%; viability, T/C (second compound 0.949 µM, first compound 0.000316 µM): 85.7%; viability, T/C (second compound 0.949 µM, first compound 0.001 µM): 88.2%; viability, T/C (second compound 0.949 µM, first compound 0.00316 µM): 107%; viability, T/C (second compound 0.949 µM, first compound 0.01 µM): 83.8%; viability, T/C [8]: 90%; viability, T/C [9]: 71.1%; viability, T/C (second compound 3 µM, first compound 0.000316 µM): 80.5%; viability, T/C (second compound 3 µM, first compound 0.001 µM): 102%; viability, T/C (second compound 3 µM, first compound 0.00316 µM): 89.3%; viability, T/C (second compound 3 µM, first compound 0.01 µM): 83.9%; viability, T/C [10]: 71.4%; viability, T/C [11]: 72.2%; viability, T/C (second compound 9.49 µM, first compound 0.000316 µM): 81.9%; viability, T/C (second compound 9.49 µM, first compound 0.001 µM): 90.1%; viability, T/C (second compound 9.49 µM, first compound 0.00316 µM): 84.1%; viability, T/C (second compound 9.49 µM, first compound 0.01 µM): 93.7%; viability, T/C [12]: 74.1%; viability, T/C [13]: 73.9%; viability, T/C (second compound 30 µM, first compound 0.000316 µM): 107%; viability, T/C (second compound 30 µM, first compound 0.001 µM): 80.2%; viability, T/C (second compound 30 µM, first compound 0.00316 µM): 105%; viability, T/C (second compound 30 µM, first compound 0.01 µM): 79%; viability, T/C [14]: 67.1%; viability, T/C [15]: 72.2%
